Like-named read-outs stand apart in the source and are kept apart here.
Experiments:
TRKA Protein (wild type) = biological target: T1, TRKA Protein (wild type) (Homo sapiens, UniProt P04629); test: Detection of TRK inhibitory activity (ADP-Glo kinase assay), TRKA wild type; format: biochemical; conditions: 35 min at room temperature
T1 construct: purchased abcam ab60887
Description: (§1) An enzyme reaction buffer was prepared containing 25 mM MOPS, 5 mM MgCl2, 500 μM DTT and 0.005% Triton, and then adjusted to pH 7.5.
(§2) The test compound was diluted with DMSO to 200 times of the desired final concentration, and mixed evenly, then 3 μL of the solution was pipetted to 117 μL of enzyme reaction buffer and mixed thoroughly. Then, 3 μL of the enzyme reaction buffer containing the test compound was pipetted to a 96-well PCR plate. The positive and negative control wells were filled with 3 μL of enzyme reaction buffer containing 2.5% DMSO, respectively. TRK protein was diluted to 0.4 ng/μL with the enzyme reaction buffer, and 6 μL of diluted TRK protein was added to each well except for the well for the blank control group, in which 6 μL of the enzyme reaction buffer was added. The reaction plate was centrifuged at 1000 rpm/min for 1 minute, and the compound and TRK were pre-incubated at room temperature for 10 minutes. A mixed solution with ATP at a concentration of 160 μM and substrate at a concentration of 1 μM was prepared with the enzyme reaction buffer, and 6 μL of the mixed solution was added to each reaction well. The reaction plate was centrifuged at 1000 rpm/min for 1 minute, and incubated at room temperature for 35 minutes. After the enzyme reaction was completed, 15 μL of ADP-Glo was added to each reaction well. The reaction plate was centrifuged at 1000 rpm/min for 1 minute, and incubated at room temperature for 40 minutes. Then 15 μL of the reaction solution from each well was transferred to a 384-well plate, and then 15 μL of detection substrate was added to each corresponding well of the 384-well plate. The 384-well plate was centrifuged at 1000 rpm/min for 1 minute, and incubated at room temperature for 40 minutes. After the reaction, a microplate reader was used to read the cold luminescence signal value in the 384-well plate.
(§3) The residual viability percentage of each concentration was calculated with the following formula: Residual viability (%)=100*(Lumincompond−Luminblank control)/(Luminpostive control−Luminblank control)
(§4) Then, GraphPad 5.0 was fitted to the effect curve to calculate the IC50 value.

TRKA (G667C) = TRKA (G667C) (Homo sapiens, UniProt P04629, G667C); test: Detection of TRK inhibitory activity (ADP-Glo kinase assay), TRKA (G667C); format: biochemical
Description: as §1, §2, §3, §4

[1] = test system: Ba/F3 ETV6-NTRK3-G623R cell line; test: Cell experiment, CellTiter-Glo viability, Ba/F3 ETV6-NTRK3-G623R; format: cell-based; conditions: Mus musculus, BaF3, 72 hours, CTG
Description: Cell culture and seeding: (1) cells in logarithmic growth phase were harvested and counted using a […]. The cell viability was detected by trypan blue exclusion method to ensure that the cell viability was above 90%. (2) The cell concentration was adjusted; and 90 μl of cell suspension was added to the 96-well plate.
10 μl of drug solution was added to each well in a 96-well plate inoculated with cells, triplicate per concentration.
End-point for reading: (1) The CTG reagent was thawed and the cell plate was equilibrated to room temperature for 30 minutes. (2) Equal volume of CTG solution was added to each well. (3) The plated was shaken on an orbital shaker for 5 minutes to lyse the cells. (4) The cell plate was placed at room temperature for 20 minutes to stabilize the cold light signal. (5) The cold light value was read.
GraphPad Prism 7.0 software was used to analyze the data, and nonlinear S-curve regression was fitted the data to get the dose-effect curve, and the IC50 value was calculated therefrom. Cell survival (%)=(Lumtest drug−Lumculture control)/(Lumcell control−Lumculture control)×100%.

T1 sequence (P04629 33-796): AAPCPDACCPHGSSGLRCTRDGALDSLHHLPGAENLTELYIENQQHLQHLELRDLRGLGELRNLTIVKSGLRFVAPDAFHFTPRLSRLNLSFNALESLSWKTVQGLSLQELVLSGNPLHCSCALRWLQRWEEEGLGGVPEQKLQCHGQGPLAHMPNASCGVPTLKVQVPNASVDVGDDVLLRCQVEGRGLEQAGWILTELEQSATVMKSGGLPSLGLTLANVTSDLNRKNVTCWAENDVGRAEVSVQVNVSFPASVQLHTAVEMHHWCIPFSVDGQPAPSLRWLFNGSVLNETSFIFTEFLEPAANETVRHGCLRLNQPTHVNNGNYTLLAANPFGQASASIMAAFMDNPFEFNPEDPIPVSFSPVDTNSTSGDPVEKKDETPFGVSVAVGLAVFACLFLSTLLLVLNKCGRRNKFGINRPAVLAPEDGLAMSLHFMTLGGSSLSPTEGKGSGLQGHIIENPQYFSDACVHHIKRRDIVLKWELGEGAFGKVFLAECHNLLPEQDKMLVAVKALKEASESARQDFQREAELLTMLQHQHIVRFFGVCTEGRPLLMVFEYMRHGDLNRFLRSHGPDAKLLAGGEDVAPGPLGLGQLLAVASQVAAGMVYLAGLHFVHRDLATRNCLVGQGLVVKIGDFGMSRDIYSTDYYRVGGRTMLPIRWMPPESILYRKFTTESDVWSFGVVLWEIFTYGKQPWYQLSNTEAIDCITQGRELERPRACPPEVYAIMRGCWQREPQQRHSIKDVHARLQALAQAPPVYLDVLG
Sequence of TRKA (G667C) (P04629 33-796 G667C): as the sequence (P04629 33-796) above, with G635C counted along it

SMILES | IC50 (TRKA Protein (wild type)) | IC50 (TRKA (G667C)) | further results
C[C@H]1CCNc2c(C(=O)O)cnc3ccc(nc23)N2CCC[C@@H]2c2cc(F)ccc2O1 |  |  | ring closure, yield of all isomers (from C[C@@H](CCNc1c(C(=O)O)cnc2ccc(Cl)nc12)Oc1ccc(F)cc1[C@H]1CCCN1, cn_pd bond, Pd2(dba)3/SPhos/Cs2CO3, toluene, 62.5 mM, 100.0 °C, 16.0 h): 52%
CN1Cc2cc(F)ccc2OCCNc2ncnc3ccc1nc23 [Example 4, 6-fluoro-2-methyl-10-oxa-2,13,15,17,21-pentaazatetracyclo [12.6.2.0^4,9.0^18,^22]docosane-1(21),4,6,8,14(22),15,17,19-octane] | 50 to 500 nM |  | 
CCOC(=O)c1cnc2ccc3nc2c1N[C@H](C)CCOc1ccc(F)cc1[C@H]1CCCN31 |  |  | ring closure, yield of all isomers (from CCOC(=O)c1cnc2ccc(Cl)nc2c1N[C@H](C)CCOc1ccc(F)cc1[C@H]1CCCN1, cn_pd bond, Pd2(dba)3/SPhos/Cs2CO3, toluene, 64.4 mM, 100.0 °C, 16.0 h): 54%
C[C@H]1CCOc2ccc(F)cc2[C@@H]2CCCN2c2ccc3ncc(C#N)c(c3n2)N1 [Example 13, (6S,16S)-9-fluoro-16-methyl-13-oxa-2,17,21,25-tetraazapentacyclo [16.6.2.0^2,^6.0^7,^12.0^22,^26]hexacosane-1(25),7,9,11,18(26),19,21,23-octane-19-nitrile] | 50 to 500 nM |  | 
C[C@@H]1CCOc2ccc(F)cc2[C@H]2CCCN2c2ccc3ncc(F)c(c3n2)N1 [Example 19, (6R,16R)-9,19-difluoro-16-methyl-13-oxa-2,17,21,25-tetraazapentacyclo[16.6.2.0^2,^6.0^7,^12.0^22,^26]hexacosane-1(25),7,9,11,18(26),19,21,23-octane] | < 50 nM | < 50 nM | ring closure, yield of all isomers (from C[C@H](CCOc1ccc(F)cc1[C@H]1CCCN1)Nc1c(F)cnc2ccc(Cl)nc12, cn_pd bond, SPhos Pd G3, toluene/tert-butanol, 35.0 mM, 100.0 °C, 16.0 h): 8.1%
O=C(O)c1cnc2ccc3nc2c1NCCCOc1ccc(F)cc1[C@H]1CCCN31 [Example 10, (6R)-9-fluoro-13-oxa-2,17,21,25-tetraazapentacyclo [16.6.2.0^2,^6.0^7,^12.0^22,^26]hexacosane-1(25),7,9,11,18(26),19,21,23-octane-19-carboxylic acid] | 50 to 500 nM |  | 
C[C@H]1CCOc2ccc(F)cc2[C@H]2CCCN2c2ccc3ncc(C#N)c(c3n2)N1 [Example 8, (6R,16S)-9-fluoro-16-methyl-3-oxa-2,17,21,25-tetraazapentacyclo [16.6.2.0^2,^6.0^7,^12.0^22,^26]hexacosane-1(25),7,9,11,18(26),19,21,23-octane-19-nitrile] | < 50 nM |  | 
CN1Cc2cc(F)ccc2OCCCNc2ncnc3ccc1nc23 [Example 3, 6-fluoro-2-methyl-10-oxa-2,14,16,18,22-pentaazatetracyclo [13.6.2.0^4,^9.0^19,^23] tricosane-1(22),4,6,8,15(23),16,18,20-octane] | < 50 nM | < 50 nM | 
NC(=O)c1cnc2ccc3nc2c1NCCCOc1ccc(F)cc1[C@H]1CCCN31 [Example 11, (6R)-9-fluoro-13-oxa-2,17,21,25-tetraazapentacyclo [16.6.2.0^2,^6.0^7,^12.0^22,^26]hexacosane-1(25),7,9,11,18(26),19,21,23-octane-19-carboxamide] | < 50 nM | < 50 nM | 
C[C@@H]1CCOc2ccc(F)cc2[C@H]2CCCN2c2ccc3ncnc(c3n2)N1 [Example 6, (6R,16R)-9-fluoro-16-methyl-13-oxa-2,17,19,21,25-pentaazapentacyclo[16.6.2.0^2,^6.0^7,^12.0,^26]hexacosane-1(25),7,9,11,18(26),19,21,23-octane] | < 50 nM | < 50 nM | IC50 [1]: 42.1 nM; IC90 [1]: 94.2 nM
C[C@H]1Nc2ccc3ncnc(c3n2)NCCCOc2ccc(F)cc21 [Example 17, 6-fluoro-3-methyl-10-oxa-2,14,16,18,22-pentaazatetracyclo [13.6.2.0^4,^9.0^19,^23] tricosane-1 (22),4,6,8,15(23),16,18,20-octane] | < 50 nM | < 50 nM | ring closure, yield of all isomers (from C[C@@H](N)c1cc(F)ccc1OCCCNc1ncnc2ccc(Cl)nc12, cn_pd bond, Pd2(dba)3/SPhos/Cs2CO3, toluene, 12.2 mM, 110.0 °C, 16.0 h): 5.4%
N#Cc1cnc2ccc3nc2c1NCCCOc1ccc(F)cc1[C@H]1CCCN31 [Example 12, (6R)-9-fluoro-13-oxa-2,17,21,25-tetraazapentacyclo [16.6.2.0^2,^6.0^7,^12.0^22,^26]hexacosane-1(25),7,9,11,18(26),19,21,23-octane-19-nitrile] | < 50 nM | < 50 nM | 
COc1ccc(CN2CC[C@H](C)Oc3ccc(F)cc3[C@H]3CCCN3c3ccc4ncnc2c4n3)c(OC)c1 |  |  | ring closure, yield of all isomers (from COc1ccc(CN(CC[C@@H](C)O)c2ncnc3ccc(N4CCC[C@@H]4c4cc(F)ccc4O)nc23)c(OC)c1, ether bond, DIAD/triphenylphosphine (printed as triphenylphosphine oxide), tetrahydrofuran, 72.0 mM, 25.0 °C, 3.0 h): 72.3%
C[C@@H]1CCOc2ccc(F)cc2[C@@H]2CCCN2c2ccc3ncc(C#N)c(c3n2)N1 [Example 14, (6S,16R)-9-fluoro-16-methyl-3-oxa-2,17,21,25-tetraazapentacyclo [16.6.2.0^2,^6.0^7,^12.0^22,^26]hexacosane-1(25),7,9,11,18(26),19,21,23-octane-19-nitrile] | 50 to 500 nM |  | 

Further lines, with some results ahead:

IC50 (TRKA Protein (wild type)) | IC50 (TRKA (G667C)) | SMILES | further results
< 50 nM | < 50 nM | C[C@@H]1CCOc2ccc(F)cc2[C@@H](C)Nc2ccc3ncc(F)c(c3n2)N1 [Example 18, (R,R)-6,16-difluoro-3,13-dimethyl-10-oxa-2,14,18,22-tetraazatetracyclo[13.6.2.0^4,^9.0^19,^23]tricosane-1(22),4,6,8,15(23),16,18,20-octane] | ring closure, yield of all isomers (from C[C@H](CCOc1ccc(F)cc1[C@@H](C)N)Nc1c(F)cnc2ccc(Cl)nc12, cn_pd bond, SPhos Pd G3/SPhos/Cs2CO3, toluene, 90.0 mM, 100.0 °C, 16.0 h): 8.2%
< 50 nM | < 50 nM | C[C@@H]1CCCc2ncc(F)cc2[C@H]2CCCN2c2ccc3ncnc(c3n2)N1 [Example 16, (6R,16R)-9-fluoro-16-methyl-2,11,17,19,21,25-hexaazapentacyclo [16.6.2.0^2,^6.0^7,^12.0^22,^26]hexacosane-1(25),7,9,11,18(26),19,21,23-octane] | 
< 50 nM | < 50 nM | C[C@H]1CCNc2ncnc3ccc(nc23)N2CCC[C@@H]2c2cc(F)ccc2O1 [Example 7, (6R,14S)-9-fluoro-14-methyl-13-oxa-2,17,19,21,25-pentaazapentacyclo[16.6.2.0^2,^6.0^7,^12.0^22,^26]hexacosane-1(25),7,9,11,18(26),19,21,23-octane] | IC50 [1]: 3.6 nM; IC90 [1]: 8.7 nM
< 50 nM | < 50 nM | C[C@@H]1CCOc2ccc(F)cc2CN(C)c2ccc3ncnc(c3n2)N1 [Example 5, (13R)-6-fluoro-2,13-dimethyl-10-oxa-2,14,16,18,22-pentaazatetracyclo[13.6.2.0^4,^9.0^19,^23]tricosane-1(22),4,6,8,15(23),16,18,20-octane] | 
< 50 nM | > 500 nM | CCOC(=O)c1cnc2ccc3nc2c1NCCCOc1ccc(F)cc1[C@H]1CCCN31 [Example 9, ethyl (6R)-9-fluoro-13-oxa-2,17,21,25-tetraazapentacyclo [16.6.2.0^2,^6.0^7,^12.0^22,^26]hexacosane-1(25),7,9,11,18(26),19,21,23-octane-19-carboxylate] | 
< 50 nM | < 50 nM | C[C@H]1CCNc2c(C#N)cnc3ccc(nc23)N2CCC[C@@H]2c2cc(F)ccc2O1 [Example 2, (6R,14S)-9-fluoro-14-methyl-3-oxa-2,17,21,25-tetraazapentacyclo [16.6.2.0^2,^6.0^7,^12.0^22,^26]hexacosane-1(25),7,9,11,18(26),19,21,23-octane-19-nitrile] | 
< 50 nM | < 50 nM | Fc1cnc2c(c1)[C@H]1CCCN1c1ccc3ncnc(c3n1)NCCCC2 [Example 15, (6R)-9-fluoro-2,11,17,19,21,25-hexaazapentacyclo [16.6.2.0^2,^6.0^7,^12.0^22,^26]hexacosane-1(25),7,9,11,18(26),19,21,23-octane] | 
